Test results: article PMC10343660, “Mechanochemical Studies on Coupling of Hydrazines and Hydrazine Amides with Phenolic and Furanyl Aldehydes—Hydrazones with Antileishmanial and Antibacterial Activities” (Molecules, 2023)
Values after ≈ are worked out from the molar mass of the structure shown. Like-named read-outs stand apart in the source and are kept apart here. Marks after values point to notes of the source that are not given here.

Assays:
E. coli ATCC25922 = test: MIC determination on E. coli ATCC25922 (microdilution, resazurin); type: cell-based, Escherichia coli
[1] = test system: L. donovani intramacrophage amastigotes; test: In vitro antileishmanial evaluation on intramacrophage amastigotes (RAW 264.7 infected, SYBR Green); type: cell-based, Leishmania donovani; conditions: for IC50: read-out: L. donovani Intramacrophage Amastigote IC50 ± SD; for SI (Selectivity Index): CC50 (macrophage RAW 264.7)/IC50 (intramacrophage form of L. donovani)
Experimental: In vitro antileishmanial evaluation on intramacrophage amastigotes. RAW 264.7 macrophages were infected with L. donovani axenic amastigotes according to a ratio of 10 parasites per macrophage. […] The in vitro treatment was applied 24 h post-infection, and the treatment duration was 48 h. […] The activity of the compounds is expressed as IC50, calculated using the ICEstimator version 1.2 software. Miltefosine was used as the reference drug.

[2] = test system: Mycobacterium tuberculosis H37Rv; test: MIC determination for Mycobacterium tuberculosis H37Rv (REMA); type: cell-based; conditions: for MIC: read-out: M. tuberculosis H37Rv MIC; for MIC90: read-out: minimum inhibitory concentration (MIC90) on M. tuberculosis H37Rv
S. aureus ATCC25923 = test: MIC determination on S. aureus ATCC25923 (microdilution, resazurin); type: cell-based, Staphylococcus aureus
[3] = test system: L. donovani axenic amastigotes (LV9); test: In vitro antileishmanial evaluation on L. donovani axenic amastigotes (SYBR Green); type: cell-based, Leishmania donovani; conditions: read-out: L. donovani Axenic Amastigote IC50 ± SD
Experimental: L. donovani (MHOM/ET/67/HU3, also called LV9) promastigotes and axenic amastigotes were maintained according to the protocols previously described.
In vitro antileishmanial evaluation on L. donovani axenic amastigotes. This evaluation was performed using the SYBR Green method as previously described. IC50 values were calculated using the ICEstimator version 1.2 software (http://www.antimalarial-icestimator.net/runregression1.2.htm, accessed on 5 April 2023). Miltefosine was used as the reference drug.

S. aureus ATCC29213 = test: MIC determination on S. aureus ATCC29213; type: cell-based, Staphylococcus aureus; conditions: value in parentheses
[4] = value outside parentheses, read-out: E. coli ATCC25922 MIC
[5] = value outside parentheses, read-out: S. aureus ATCC25923 MIC
[6] = Escherichia coli, ATCC25922, value outside parentheses, read-out: E. coli ATCC25922 MIC
[7] = Leishmania donovani, RAW264.7, RAW 264.7 macrophages infected, treatment 48 h
[8] = Mycobacterium tuberculosis, H37RV, 168 h, REMA, 7 days
[9] = Mycobacterium tuberculosis, H37RV, range for the active compounds
[10] = Staphylococcus aureus, ATCC25923, value outside parentheses, read-out: S. aureus ATCC25923 MIC
[11] = Leishmania donovani, LV9 axenic amastigote forms
[12] = Escherichia coli, ATCC25922, 24 h, value outside parentheses, read-out: E. coli ATCC25922 MIC
[13] = Staphylococcus aureus, ATCC25923, 24 h, value outside parentheses, read-out: S. aureus ATCC25923 MIC
[14] = Staphylococcus aureus, ATCC29213

Compound	MIC (E. coli ATCC25922; [6])	SI (Selectivity Index) [1]	IC50 [1, 7]	MIC [2, 8]	MIC (S. aureus ATCC25923; [10])	melting point	IC50 [3, 11]	also measured
O=C(N/N=C/c1ccc(-c2ccc([N+](=O)[O-])cc2)o1)OCc1ccccc1 [Compound 17, N′-[(E)-[5-(4-nitrophenyl)furan-2-yl]methylidene](benzyloxy)carbohydrazide]								MIC (E. coli ATCC25922; [4]): >701 µM; IC50 ([1]; RAW 264.7 macrophages infected, treatment 48 h): 32.4 ± 2.8 µM; MIC ([2]; REMA, 7 days): >100 µM; MIC (S. aureus ATCC25923; [5]): >701 µM; IC50 ([3]; LV9 axenic amastigote forms): 12200 ± 1600 nM
O=[N+]([O-])c1ccc(/C=C/C=N/Nc2nc3ccccc3s2)o1 [Compound 5, 2-{(2E)-2-[(2E)-3-(5-Nitro-2-furyl)-2-propen-1-ylidene]hydrazino}-1,3-benzothiazole]	> 814 µM	>8	12.4 ± 1.2 µM	1 µM (≈ 0.314 µg/mL)	> 814 µM	243.1 °C	2300 ± 300 nM	MIC90 [2, 9]: 0.6 to 7.4 µM (≈ 0.189 to 2.33 µg/mL)
O=[N+]([O-])c1ccc(-c2ccc(/C=N/Nc3nc4ccc(Cl)cc4o3)o2)cc1 [Compound 16, 6-chloro-2-[(2E)-2-{[5-(4-nitrophenyl)furan-2-yl]methylidene}hydrazin-1-yl]-1,3-benzoxazole]			> 100 µM	> 100 µM		190.9 °C	> 100000 nM	MIC (E. coli ATCC25922; [12]): > 828 µM; MIC (S. aureus ATCC25923; [13]): > 828 µM
[H]/N=C(/N)N[C@H]1[C@H](O)[C@@H](O)[C@H](O[C@@H]2O[C@@H](C)[C@](O)(C=O)[C@H]2O[C@@H]2O[C@@H](CO)[C@H](O)[C@@H](O)[C@@H]2NC)[C@@H](N/C(N)=N\[H])[C@@H]1O [Streptomycin, reference compound]				0.4 µM (≈ 0.233 µg/mL)				
O=C1CSC(=S)N1/N=C/c1ccc(-c2ccc([N+](=O)[O-])cc2)o1 [Compound 11, 3-[(E)-{[5-(4-Nitrophenyl)-2-furyl]methylene}amino]-2-thioxo-1,3-thiazolidin-4-one]	> 737 µM		> 100 µM	> 100 µM	> 737 µM	175 °C	5200 ± 300 nM	
NNC(=O)c1ccncc1 [Isoniazid, reference compound]				0.4 µM (≈ 0.0549 µg/mL)				
O=C1CSC(=S)N1/N=C/C=C/c1ccc([N+](=O)[O-])o1 [Compound 6, 3-{(E)-[(2E)-3-(5-Nitro-2-furyl)-2-propen-1-ylidene]amino}-2-thioxo-1,3-thiazolidin-4-one]	> 861 µM	>125	0.8 ± 0.1 µM	4.2 µM (≈ 1.25 µg/mL)	13 µM (≈ 3.87 µg/mL)		700 ± 100 nM	MIC90 [2, 9]: 0.6 to 7.4 µM (≈ 0.178 to 2.2 µg/mL); MIC (S. aureus ATCC25923; [5]): 13 µM (≈ 3.87 µg/mL); MIC (S. aureus ATCC29213; [14]): 7 µM (≈ 2.08 µg/mL); MIC (S. aureus ATCC29213): 7 µM (≈ 2.08 µg/mL)
O=C(N/N=C/C=C/c1ccc([N+](=O)[O-])o1)c1ccncc1 [Compound 3, N′-[(1E,2E)-3-(5-Nitro-2-furyl)-2-propen-1-ylidene]isonicotinohydrazide]	28 µM (≈ 8.01 µg/mL)	>200	0.5 ± 0.1 µM	1 µM (≈ 0.286 µg/mL)	1.75 µM (≈ 0.501 µg/mL)	252.1 to 254 °C	600 ± 100 nM	MIC (E. coli ATCC25922; [4]): 28 µM (≈ 8.01 µg/mL); MIC90 [2, 9]: 0.6 to 7.4 µM (≈ 0.172 to 2.12 µg/mL); MIC (S. aureus ATCC25923; [5]): 1.75 µM (≈ 0.501 µg/mL); MIC (S. aureus ATCC29213; [14]): 7 µM (≈ 2 µg/mL); MIC (S. aureus ATCC29213): 7 µM (≈ 2 µg/mL)
COc1cc(/C=N/NC(=O)c2ccncc2)ccc1O [Compound 1, N′-[(E)-(4-Hydroxy-3-methoxyphenyl)methylene]isonicotinohydrazide]	> 944 µM	>2.5	40.2 ± 3.1 µM	0.6 µM (≈ 0.163 µg/mL)	> 944 µM		24900 ± 2900 nM	MIC90 [2, 9]: 0.6 to 7.4 µM (≈ 0.163 to 2.01 µg/mL)
CCCCCCCCCCCCCCCCOP(=O)([O-])OCC[N+](C)(C)C [Miltefosine, reference compound]		9 ^a	2.2 ± 0.3 µM				1500 ± 300 nM	
O=[N+]([O-])c1ccc(-c2ccc(/C=N/Nc3nc4ccccc4s3)o2)cc1 [Compound 10, 2-[(2E)-2-{[5-(4-Nitrophenyl)-2-furyl]methylene}hydrazino]-1,3-benzothiazole]	> 703 µM		5.8 ± 1 µM	> 100 µM	> 703 µM	271.9 °C	700 ± 100 nM	
O=C(N/N=C/c1ccc(-c2ccc([N+](=O)[O-])cc2)o1)c1ccncc1 [Compound 8, N′-{(E)-[5-(4-Nitrophenyl)-2-furyl]methylene}isonicotinohydrazide]		>2						MIC (E. coli ATCC25922; Escherichia coli, ATCC25922, read-out: E. coli ATCC25922 MIC): > 761 µM; IC50 ([1]; Leishmania donovani, RAW264.7, 48 h): 36.2 ± 1.4 µM; MIC ([2]; Mycobacterium tuberculosis, H37RV, 168 h): 0.9 µM (≈ 0.303 µg/mL); MIC90 ([2]; Mycobacterium tuberculosis, H37RV): 0.6 to 7.4 µM (≈ 0.202 to 2.49 µg/mL); MIC (S. aureus ATCC25923; Staphylococcus aureus, ATCC25923, read-out: S. aureus ATCC25923 MIC): > 761 µM; IC50 ([3]; Leishmania donovani): 16200 ± 1200 nM
O=[N+]([O-])c1ccc(-c2ccc(/C=N/Nc3ccc(Br)cn3)o2)cc1 [Compound 13, 5-Bromo-2-[(2E)-2-{[5-(4-nitrophenyl)furan-2-yl]methylidene}hydrazin-1-yl]pyridine]	> 661 µM		> 100 µM	> 100 µM	> 661 µM		54300 ± 4500 nM	
O=[N+]([O-])c1ccc(-c2ccc(/C=N/Nc3nccc(C(F)(F)F)n3)o2)cc1 [Compound 14, 2-[(2E)-2-{[5-(4-Nitrophenyl)furan-2-yl]methylidene}hydrazin-1-yl]-4-(trifluoromethyl) pyrimidine]		>8	11.9 ± 1.1 µM	> 100 µM		212.4 to 214.2 °C	2900 ± 200 nM	MIC (E. coli ATCC25922; [12]): > 669 µM; MIC (S. aureus ATCC25923; [13]): > 669 µM
O=[N+]([O-])c1ccc(-c2ccc(/C=N/Nc3nncc4ccccc34)o2)cc1 [Compound 9, 1-[(2E)-2-{[5-(4-Nitrophenyl)-2-furyl]methylene}hydrazino]phthalazine]	> 711 µM	>333	0.3 ± 0.1 µM	> 100 µM	> 711 µM	239.5 to 241.5 °C	200 ± 100 nM	
O=[N+]([O-])c1ccc(/C=C/C=N/NN2Cc3ccccc3C=N2)o1 [Compound 4, 2-{(2E)-2-[(2E)-3-(5-Nitro-2-furyl)-2-propen-1-ylidene]hydrazino}phthalazine]	> 828 µM	>166	0.6 ± 0.1 µM	129 µM (≈ 40.2 µg/mL)	> 828 µM		1900 ± 300 nM	
O=[N+]([O-])c1ccc(-c2ccc(/C=N/Nc3cnccn3)o2)cc1 [Compound 15, 2-[(2E)-2-{[5-(4-nitrophenyl)furan-2-yl]methylidene}hydrazin-1-yl]pyrazine]		>4	23.3 ± 3.1 µM	> 100 µM		272.2 to 274 °C	9900 ± 800 nM	MIC (E. coli ATCC25922; [12]): > 678 µM; MIC (S. aureus ATCC25923; [13]): > 678 µM
COc1cc(/C=N/NC(=O)c2ccc(O)cc2)ccc1O [Compound 2, 4-hydroxy-N′-[(E)-(4-hydroxy-3-methoxyphenyl)methylidene]benzohydrazide]	> 894 µM	>17	5.9 ± 0.9 µM	> 100 µM	> 894 µM		2100 ± 100 nM	
O=C(O)c1cn(C2CC2)c2cc(N3CCNCC3)c(F)cc2c1=O [Ciprofloxacin, reference compound]	0.75 µM (≈ 0.249 µg/mL)				3 µM (≈ 0.994 µg/mL)			MIC (S. aureus ATCC29213; [14]): 5 µM (≈ 1.66 µg/mL)
